Assays:
[1] = molecular target: T1, HiBit-BRM fusion protein (Homo sapiens, UniProt P51531); experiment: HiBiT-BRM cell-based degradation assay (Nano-Glo HiBiT Lytic Detection, 24 h); settings: HeLa cell line expressing HiBiT-BRM; for DC50: read-out: BRM HiBit Degradation IC50
T1 construct: expressed in transfected cells
In short: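 Luminescence from reconstituted NanoBiT luciferase in lysed HeLa HiBiT-BRM cells served as the measure of remaining BRM after 24 h treatment. Compounds were tested from 30 μM final downward in 3-fold steps. DMSO and 2 μM of a standard BRM/BRG1 degrader defined the scale limits.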

[2] = molecular target: T2, HiBit-BRG1 fusion protein (Homo sapiens, UniProt P51532); experiment: HiBiT-BRG1 cell-based degradation assay (Nano-Glo HiBiT Lytic Detection, 24 h); settings: HeLa cell line expressing HiBit-BRG1 and LgBit; for Dmax: read-out: BRG1 HiBit Degradation Maximum (%); for DC50: read-out: BRMG1 HiBit Degradation IC50
T2 construct: expressed in transfected cells
T2 sequence (P51532 whole entry, the tested form may be a part): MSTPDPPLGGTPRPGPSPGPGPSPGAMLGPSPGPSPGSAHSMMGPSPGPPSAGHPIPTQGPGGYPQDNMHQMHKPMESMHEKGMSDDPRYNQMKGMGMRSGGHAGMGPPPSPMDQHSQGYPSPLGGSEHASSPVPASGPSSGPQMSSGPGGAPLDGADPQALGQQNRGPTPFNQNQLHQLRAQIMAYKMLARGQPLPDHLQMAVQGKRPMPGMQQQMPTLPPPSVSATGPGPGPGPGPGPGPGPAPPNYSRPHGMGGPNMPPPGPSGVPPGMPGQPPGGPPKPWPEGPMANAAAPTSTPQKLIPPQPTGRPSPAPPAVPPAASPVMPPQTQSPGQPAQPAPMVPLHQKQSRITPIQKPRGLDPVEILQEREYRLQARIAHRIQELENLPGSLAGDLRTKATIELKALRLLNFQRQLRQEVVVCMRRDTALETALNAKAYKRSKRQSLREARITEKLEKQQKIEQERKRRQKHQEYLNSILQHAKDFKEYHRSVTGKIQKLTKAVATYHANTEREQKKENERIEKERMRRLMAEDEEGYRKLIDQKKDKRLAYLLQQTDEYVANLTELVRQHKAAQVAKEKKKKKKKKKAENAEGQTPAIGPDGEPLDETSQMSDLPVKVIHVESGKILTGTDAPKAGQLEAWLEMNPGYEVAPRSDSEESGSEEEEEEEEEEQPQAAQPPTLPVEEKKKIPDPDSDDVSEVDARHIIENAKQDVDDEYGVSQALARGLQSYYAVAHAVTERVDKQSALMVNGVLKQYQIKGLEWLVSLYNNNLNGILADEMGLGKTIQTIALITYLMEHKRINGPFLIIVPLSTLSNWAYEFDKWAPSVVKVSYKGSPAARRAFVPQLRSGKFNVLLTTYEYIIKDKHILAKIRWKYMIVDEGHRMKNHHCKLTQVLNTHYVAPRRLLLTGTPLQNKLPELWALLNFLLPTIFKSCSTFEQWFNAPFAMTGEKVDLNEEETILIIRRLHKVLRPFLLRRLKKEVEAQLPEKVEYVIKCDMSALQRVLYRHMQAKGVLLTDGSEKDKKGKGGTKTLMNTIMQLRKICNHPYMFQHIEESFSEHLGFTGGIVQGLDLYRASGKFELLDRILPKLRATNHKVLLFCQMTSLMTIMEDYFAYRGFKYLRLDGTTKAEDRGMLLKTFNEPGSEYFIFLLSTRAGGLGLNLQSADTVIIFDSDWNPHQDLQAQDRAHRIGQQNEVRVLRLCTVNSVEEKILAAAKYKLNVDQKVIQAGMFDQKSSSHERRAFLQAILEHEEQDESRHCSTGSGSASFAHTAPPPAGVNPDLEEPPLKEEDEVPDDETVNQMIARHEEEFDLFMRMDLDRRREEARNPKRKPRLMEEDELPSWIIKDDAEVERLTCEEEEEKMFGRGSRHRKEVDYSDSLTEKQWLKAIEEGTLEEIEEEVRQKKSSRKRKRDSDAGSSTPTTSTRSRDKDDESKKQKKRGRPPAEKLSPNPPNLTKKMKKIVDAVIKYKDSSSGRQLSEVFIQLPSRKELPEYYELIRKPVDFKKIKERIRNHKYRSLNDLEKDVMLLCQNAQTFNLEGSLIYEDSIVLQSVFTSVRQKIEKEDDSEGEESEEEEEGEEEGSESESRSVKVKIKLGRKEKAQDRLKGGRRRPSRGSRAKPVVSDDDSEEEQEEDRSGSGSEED
In short: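 HeLa cells stably expressing HiBiT-BRG1 plus LgBit, 5000/well, treated 24 h, then lysed with Nano-Glo HiBiT lytic reagent and luminescence read. % degradation normalised between DMSO (high control) and 2 μM reference BRM/BRG1 degrader (low control).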

T1 sequence (P51531 whole entry, the tested form may be a part): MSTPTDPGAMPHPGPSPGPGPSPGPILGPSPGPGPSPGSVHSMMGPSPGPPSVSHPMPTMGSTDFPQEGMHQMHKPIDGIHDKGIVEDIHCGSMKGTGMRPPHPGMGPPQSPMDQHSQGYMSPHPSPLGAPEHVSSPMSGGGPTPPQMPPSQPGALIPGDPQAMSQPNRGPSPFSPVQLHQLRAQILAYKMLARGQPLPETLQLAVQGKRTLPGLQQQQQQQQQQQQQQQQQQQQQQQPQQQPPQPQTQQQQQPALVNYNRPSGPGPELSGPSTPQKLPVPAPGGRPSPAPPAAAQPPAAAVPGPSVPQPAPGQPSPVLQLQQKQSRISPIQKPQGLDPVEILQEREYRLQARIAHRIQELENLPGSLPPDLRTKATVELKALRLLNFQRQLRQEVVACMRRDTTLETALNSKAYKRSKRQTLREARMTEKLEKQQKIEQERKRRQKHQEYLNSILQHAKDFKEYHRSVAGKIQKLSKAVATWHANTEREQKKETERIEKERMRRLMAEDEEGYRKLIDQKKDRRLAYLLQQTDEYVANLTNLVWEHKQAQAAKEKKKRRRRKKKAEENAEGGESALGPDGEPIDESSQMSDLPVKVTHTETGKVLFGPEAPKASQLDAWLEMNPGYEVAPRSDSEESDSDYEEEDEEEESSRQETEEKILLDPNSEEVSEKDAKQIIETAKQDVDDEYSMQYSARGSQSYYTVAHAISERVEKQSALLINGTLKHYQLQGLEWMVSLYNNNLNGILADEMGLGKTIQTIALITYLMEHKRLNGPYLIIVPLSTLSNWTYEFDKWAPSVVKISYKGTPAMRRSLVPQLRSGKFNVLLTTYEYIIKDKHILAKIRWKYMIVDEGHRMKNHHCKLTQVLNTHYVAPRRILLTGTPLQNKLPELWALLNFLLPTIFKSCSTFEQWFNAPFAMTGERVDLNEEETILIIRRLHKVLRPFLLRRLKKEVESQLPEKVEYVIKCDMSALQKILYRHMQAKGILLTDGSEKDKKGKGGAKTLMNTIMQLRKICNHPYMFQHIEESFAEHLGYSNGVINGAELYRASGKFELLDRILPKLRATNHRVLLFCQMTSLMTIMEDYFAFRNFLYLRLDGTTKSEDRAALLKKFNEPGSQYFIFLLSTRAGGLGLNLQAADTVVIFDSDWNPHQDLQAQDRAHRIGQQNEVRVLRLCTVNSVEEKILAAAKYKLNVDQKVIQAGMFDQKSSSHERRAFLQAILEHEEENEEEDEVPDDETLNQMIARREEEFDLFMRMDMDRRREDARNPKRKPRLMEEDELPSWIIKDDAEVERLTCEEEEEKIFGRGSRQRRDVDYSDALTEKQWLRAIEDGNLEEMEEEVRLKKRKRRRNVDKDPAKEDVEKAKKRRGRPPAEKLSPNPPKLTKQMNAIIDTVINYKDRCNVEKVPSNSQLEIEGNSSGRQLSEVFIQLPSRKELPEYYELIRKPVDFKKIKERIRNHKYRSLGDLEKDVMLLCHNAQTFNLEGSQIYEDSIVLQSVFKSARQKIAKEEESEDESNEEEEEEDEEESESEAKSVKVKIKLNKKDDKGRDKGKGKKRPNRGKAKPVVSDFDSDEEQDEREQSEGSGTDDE

Row | SMILES | DC50 [1] [nM] | Dmax [2] [%] | DC50 [2] [nM] | BRM HiBit Degradation Maximum (%) [1]
1 | Cc1ncsc1-c1ccc([C@H](C)NC(=O)[C@@H]2C[C@@H](O)CN2C(=O)[C@@H](c2cc(OCCNCCC(=O)N3CC(c4c[nH]c5nnc(-c6ccccc6O)cc45)C3)no2)C(C)C)cc1 (racemic) [Compound 230, (2S,4R)-4-hydroxy-1-((R)-2-(3-(2-((3-(3-(3-(2-hydroxyphenyl)-7H-pyrrolo[2,3-c]pyridazin-5-yl)azetidin-1-yl)-3-oxopropyl)amino)ethoxy)isoxazol-5-yl)-3-methylbutanoyl)-N-((S)-1-(4-(4-methylthiazol-5-yl)phenyl)ethyl)pyrrolidine-2-carboxamide] | > 1000 | < 50 |  | B (“B” indicates maximum degradation ≥ 50%)
2 | Cc1ncsc1-c1ccc([C@H](C)NC(=O)[C@@H]2C[C@@H](O)CN2C(=O)[C@@H](c2cc(OCCN3C[C@@H]4[C@H](C3)[C@H]4c3c[nH]c4nnc(-c5ccccc5O)cc34)no2)C(C)C)cc1 (racemic) [Compound 210, (2S,4R)-4-hydroxy-1-((R)-2-(3-(2-((1R,5S,6S)-6-(3-(2-hydroxyphenyl)-7H-pyrrolo[2,3-c]pyridazin-5-yl)-3-azabicyclo[3.1.0]hexan-3-yl)ethoxy)isoxazol-5-yl)-3-methylbutanoyl)-N-((S)-1-(4-(4-methylthiazol-5-yl)phenyl)ethyl)pyrrolidine-2-carboxamide] |  | < 50 |  | C (“C” indicates maximum degradation < 50%)
3 | Cc1ncsc1-c1ccc([C@H](C)NC(=O)[C@@H]2C[C@@H](O)CN2C(=O)[C@@H](c2cc(C3CN(C(=O)[C@@H]4CCc5[nH]c6nnc(-c7ccccc7O)cc6c5C4)C3)no2)C(C)C)cc1 (single isomer, unassigned) [Compound 158] | > 100 | < 50 |  | A (“A” indicates maximum degradation ≥ 75%)
4 | Cc1ncsc1-c1ccc([C@H](C)NC(=O)[C@@H]2C[C@@H](O)CN2C(=O)[C@@H](c2cc(OCCN3CC[C@@H](c4c[nH]c5nnc(-c6ccccc6O)cc45)C3)no2)C(C)C)cc1 (racemic) [Compound 262, (2S,4R)-4-hydroxy-1-((R)-2-(3-(2-((S)-3-(3-(2-hydroxyphenyl)-7H-pyrrolo[2,3-c]pyridazin-5-yl)pyrrolidin-1-yl)ethoxy)isoxazol-5-yl)-3-methylbutanoyl)-N-((S)-1-(4-(4-methylthiazol-5-yl)phenyl)ethyl)pyrrolidine-2-carboxamide] | > 10 | < 50 |  | B (“B” indicates maximum degradation ≥ 50%)
5 | Cc1ncsc1-c1ccc([C@H](C)NC(=O)[C@@H]2C[C@@H](O)CN2C(=O)[C@@H](c2cc(N3CCC(C(=O)N4CC5(Cc6cc(-c7ccccc7O)nnc6N5)C4)CC3)no2)C(C)C)cc1 (racemic) [Compound 97, (2S,4R)-4-hydroxy-1-((R)-2-(3-(4-(3′-(2-hydroxyphenyl)-5′,7′-dihydrospiro[azetidine-3,6′-pyrrolo[2,3-c]pyridazine]-1-carbonyl)piperidin-1-yl)isoxazol-5-yl)-3-methylbutanoyl)-N-((S)-1-(4-(4-methylthiazol-5-yl)phenyl)ethyl)pyrrolidine-2-carboxamide] | > 100 | < 50 |  | A (“A” indicates maximum degradation ≥ 75%)

The next lines start with results.

Row | DC50 [1] [nM] | Dmax [2] [%] | DC50 [2] [nM] | SMILES | BRM HiBit Degradation Maximum (%) [1]
6 | < 10 | > 75 | > 10 | Cc1ncsc1-c1ccc([C@H](C)NC(=O)[C@@H]2C[C@@H](O)CN2C(=O)[C@@H](c2cc(OCCN3CC[C@@H](c4[nH]c5nnc(-c6ccccc6O)cc5c4C)C3)no2)C(C)C)cc1 (racemic) [Compound 259, (2S,4R)-4-hydroxy-1-((R)-2-(3-(2-((R)-3-(3-(2-hydroxyphenyl)-5-methyl-7H-pyrrolo[2,3-c]pyridazin-6-yl)pyrrolidin-1-yl)ethoxy)isoxazol-5-yl)-3-methylbutanoyl)-N-((S)-1-(4-(4-methylthiazol-5-yl)phenyl)ethyl)pyrrolidine-2-carboxamide] | A (“A” indicates maximum degradation ≥ 75%)
7 | > 10 | > 75 | > 10 | Cc1ncsc1-c1ccc([C@H](C)NC(=O)[C@@H]2C[C@@H](O)CN2C(=O)[C@@H](c2cc(OCCN(C)C34CC(c5cc6cc(-c7ccccc7O)nnc6[nH]5)(C3)C4)no2)C(C)C)cc1 (racemic) [Compound 302, (2S,4R)-4-hydroxy-1-((R)-2-(3-(2-((3-(3-(2-hydroxyphenyl)-7H-pyrrolo[2,3-c]pyridazin-6-yl)bicyclo[1.1.1]pentan-1-yl)(methyl)amino)ethoxy)isoxazol-5-yl)-3-methylbutanoyl)-N-((S)-1-(4-(4-methylthiazol-5-yl)phenyl)ethyl)pyrrolidine-2-carboxamide] | A (“A” indicates maximum degradation ≥ 75%)
8 | > 10 | > 75 | > 100 | Cc1ncsc1-c1ccc([C@H](C)NC(=O)[C@@H]2C[C@@H](O)CN2C(=O)[C@@H](c2cc(N3CCC(C(=O)N[C@@H]4CCc5[nH]c6nnc(-c7ccccc7O)cc6c5C4)CC3)no2)C(C)C)cc1 (single isomer, unassigned) [Compound 146] | A (“A” indicates maximum degradation ≥ 75%)
9 | > 10 | < 50 | > 1000 | Cc1ncsc1-c1ccc([C@H](C)NC(=O)[C@@H]2C[C@@H](O)CN2C(=O)[C@@H](c2cc(C3CCN(C(=O)[C@@H]4CCc5[nH]c6nnc(-c7ccccc7O)cc6c5C4)CC3)no2)C(C)C)cc1 (single isomer, unassigned) [Compound 166] | A (“A” indicates maximum degradation ≥ 75%)
10 | > 10 | < 50 |  | Cc1ncsc1-c1ccc([C@H](C)NC(=O)[C@@H]2C[C@@H](O)CN2C(=O)[C@@H](c2cc(N3CCN(C(=O)[C@H]4C[C@@]5(Cc6cc(-c7ccccc7O)nnc6N5)C4)CC3)no2)C(C)C)cc1 (racemic) [Compound 80, (2S,4R)-4-hydroxy-1-((R)-2-(3-(4-((1R,3s)-3′-(2-hydroxyphenyl)-5′,7′-dihydrospiro[cyclobutane-1,6′-pyrrolo[2,3-c]pyridazine]-3-carbonyl)piperazin-1-yl)isoxazol-5-yl)-3-methylbutanoyl)-N-((S)-1-(4-(4-methylthiazol-5-yl)phenyl)ethyl)pyrrolidine-2-carboxamide] | A (“A” indicates maximum degradation ≥ 75%)
11 | > 10 | < 50 |  | Cc1ncsc1-c1ccc([C@H](C)NC(=O)[C@@H]2C[C@@H](O)CN2C(=O)[C@@H](c2cc(OCCNC3CC[C@]34C[C@H](c3cc5cc(-c6ccccc6O)nnc5[nH]3)C4)no2)C(C)C)cc1 (mixture of isomers) [Compound 132, (2S,4R)-4-hydroxy-1-((R)-2-(3-(2-(((1S,4s,6S)-6-(3-(2-hydroxyphenyl)-7H-pyrrolo[2,3-c]pyridazin-6-yl)spiro[3.3]heptan-1-yl)amino)ethoxy)isoxazol-5-yl)-3-methylbutanoyl)-N-((S)-1-(4-(4-methylthiazol-5-yl)phenyl)ethyl)pyrrolidine-2-carboxamide] | A (“A” indicates maximum degradation ≥ 75%)

Reference: patent publication US20240024488A1, “COMPOUNDS AND USES THEREOF” (Foghorn Therapeutics Inc., priority 2020, published 2024)
